Assay [1] deals with Human immunodeficiency virus 1. The assay is described as follows: Whole cell antiviral activity. The assay is classed as functional.
The target of assay [2] is Human immunodeficiency virus type 1 protease (Human immunodeficiency virus 1, UniProt Q72874). As to the kind of experiment: HIV protease inhibition.

The values below come from ChEMBL document CHEMBL1130778, “The synthesis and evaluation of cyclic ureas as HIV protease inhibitors: modifications of the P1/P1' residues” (Bioorg Med Chem Lett, 1998).

In assay [1], `O=C1N(Cc2cccc(-c3cc[nH]n3)c2)[C@H](Cc2ccc(OCc3ccncc3)cc2)[C@H](O)[C@@H](O)[C@@H](Cc2ccc(OCc3ccncc3)cc2)N1Cc1cccc(-c2cc[nH]n2)c1` showed an IC90 of 18 nM. The compound also showed a Ki in assay [2] of 0.071 nM.

In the case of `O=C1N(Cc2ccccc2)[C@H](Cc2ccc(OCc3ccncc3)cc2)[C@H](O)[C@@H](O)[C@@H](Cc2ccc(OCc3ccncc3)cc2)N1Cc1ccccc1`, the IC90 in assay [1] is 100 nM. In assay [2], the Ki was 0.84 nM.

In assay [1], `O=C1N(Cc2cccc(-c3cc[nH]n3)c2)[C@H](Cc2ccc(OCCN3CCOCC3)cc2)[C@H](O)[C@@H](O)[C@@H](Cc2ccc(OCCN3CCOCC3)cc2)N1Cc1cccc(-c2cc[nH]n2)c1` showed an IC90 of 1030 nM. In assay [2], this compound returned a Ki of 0.13 nM.

Turning to `O=C1N(Cc2ccc(CO)cc2)[C@H](Cc2ccccc2)[C@H](O)[C@@H](O)[C@@H](Cc2ccccc2)N1Cc1ccc(CO)cc1` [DMP-323], in assay [1], the 90% effect level (IC90) was put at 91 nM. In assay [2], the Ki turned out to be 0.29 nM.

For `O=C1N(Cc2ccccc2)[C@H](Cc2ccc(OCCO)cc2)[C@H](O)[C@@H](O)[C@@H](Cc2ccc(OCCO)cc2)N1Cc1ccccc1`, the IC90 in assay [1] is 78 nM. Also, the affinity in assay [2] corresponds to a Ki of 0.76 nM.

For `CNCCOc1ccc(C[C@@H]2[C@H](O)[C@@H](O)[C@@H](Cc3ccc(OCCNC)cc3)N(Cc3ccccc3)C(=O)N2Cc2ccccc2)cc1`, the IC90 in assay [1] worked out at 800 nM. The compound further gave a Ki in assay [2] of 1.6 nM.

For `O=C1N(Cc2ccccc2)[C@H](Cc2ccc(OCCN3CCOCC3)cc2)[C@H](O)[C@@H](O)[C@@H](Cc2ccc(OCCN3CCOCC3)cc2)N1Cc1ccccc1`, the IC90 in assay [1] worked out at 230 nM. In assay [2], this compound showed a Ki of 5.9 nM.

The compound `COc1ccc(C[C@@H]2[C@H](O)[C@@H](O)[C@@H](Cc3ccc(OC)cc3)N(Cc3ccccc3)C(=O)N2Cc2ccccc2)cc1` came in with an IC90 in assay [1] of 600 nM.

Regarding `O=C1N(Cc2ccccc2)[C@H](Cc2ccccc2)[C@H](O)[C@@H](O)[C@@H](Cc2ccccc2)N1Cc1ccccc1`, the IC90 in assay [1] came out at 790 nM.

In assay [1], `Nc1cccc(CN2C(=O)N(Cc3cccc(N)c3)[C@H](Cc3ccccc3)[C@H](O)[C@@H](O)[C@H]2Cc2ccccc2)c1` [MOZENAVIR] showed an IC90 of 126 nM.

`O=C1N(Cc2cccc(-c3cc[nH]n3)c2)[C@H](Cc2ccc(O)cc2)[C@H](O)[C@@H](O)[C@@H](Cc2ccc(O)cc2)N1Cc1cccc(-c2cc[nH]n2)c1` showed an IC90 in assay [1] of 1340 nM. This compound also yielded a Ki in assay [2] of 0.016 nM.

Compound `O=C1N(Cc2cccc(-c3cc[nH]n3)c2)[C@H](Cc2ccc(OCc3cccnc3)cc2)[C@H](O)[C@@H](O)[C@@H](Cc2ccc(OCc3cccnc3)cc2)N1Cc1cccc(-c2cc[nH]n2)c1` came in with an IC90 in assay [1] of 32 nM. The same compound showed a Ki in assay [2] of 0.059 nM.

Regarding `O=C1N(Cc2cccc(-c3cc[nH]n3)c2)[C@H](Cc2ccccc2)[C@H](O)[C@@H](O)[C@@H](Cc2ccccc2)N1Cc1cccc(-c2cc[nH]n2)c1`, the 90% effect level in assay [1] (IC90) was put at 56 nM.

`O=C1N(Cc2ccccc2)[C@H](Cc2ccc(O)cc2)[C@H](O)[C@@H](O)[C@@H](Cc2ccc(O)cc2)N1Cc1ccccc1` gave an IC90 in assay [1] of 184 nM. This IC90 is about 3.3-fold higher than that of the compound before.

`COc1ccc(C[C@@H]2[C@H](O)[C@@H](O)[C@@H](Cc3ccc(OC)cc3)N(Cc3cccc(-c4cc[nH]n4)c3)C(=O)N2Cc2cccc(-c3cc[nH]n3)c2)cc1` registered an IC90 in assay [1] of 10 nM. Besides, the affinity in assay [2] corresponds to a Ki of 0.078 nM.

Turning to `CN(C)CCOc1ccc(C[C@@H]2[C@H](O)[C@@H](O)[C@@H](Cc3ccc(OCCN(C)C)cc3)N(Cc3cccc(-c4cc[nH]n4)c3)C(=O)N2Cc2cccc(-c3cc[nH]n3)c2)cc1`, the IC90 in assay [1] was 5400 nM. The compound further displayed a Ki in assay [2] of 0.061 nM.

On to `O=C1N(Cc2cccc(-c3cc[nH]n3)c2)[C@H](Cc2ccc(OCCO)cc2)[C@H](O)[C@@H](O)[C@@H](Cc2ccc(OCCO)cc2)N1Cc1cccc(-c2cc[nH]n2)c1`, for which it took 462 nM to reach the 90% level in assay [1] (IC90). Further, the Ki in assay [2] was found to be 0.059 nM.
